From US20240190896A1, “SMTP-7 DERIVATIVE AND USE THEREOF” (Shanghai Senhui Medicine Co., Ltd., priority 2021, published 2024)

Assays:
[1] = Test Example 2: Pharmacokinetic study in rats (intravenous); format: in vivo, SD rats; settings: 5 mg/kg intravenous administration
Method: After they were well mixed by vortexing and ultrasonication, a 1 mg/mL clear solution was obtained for later use.
SD Rats, at the Age of 6-8 Weeks, Weighing about 180-240 g.
The pharmacokinetic parameters such as AUC(0−t), AUC(0−∞), T1/2, MRT, Cmax and Tmax were measured in rats according to the method of Test Example 1.

[2] = Test Example 1: Pharmacokinetic study in rats (intravenous); format: in vivo; settings: rat, SD rats, 5 mg/kg intravenous injection, plasma; for MRT last: read-out: MRT(0-t)
Method: A proper amount of each of SMTP-7 and compound 1 was weighed out, and 2% (final volume) DMSO and 98% (final volume) normal saline were added. After they were well mixed by vortexing and ultrasonication, a 1 mg/mL clear solution was obtained for later use.
SD Rats, at the Age of 6-8 Weeks, Weighing about 180-220 g.
About 0.20 mL of blood was collected for each sample via the jugular vein or other suitable is routes, and sodium heparin was used as the anticoagulant. The blood was placed on ice immediately after the collection. The collection was performed at a total of 10 time points: before administration, and 5 min, 0.25 h, 0.5 h, 1 h, 2 h, 4 h, 6 h, 10 h and 24 h after administration. The collected blood samples were placed in heparin anticoagulant blood collection tubes and centrifuged at 6800 g at 2-8° C. for 6 min to separate plasma. The plasma samples were stored in a freezer at −80° C. before analysis.
The plasma concentration of each test compound was determined. The analysis of quality control samples was performed while the samples were analyzed, and more than 66.7% of the quality control samples were required to have an accuracy of 80-120%.
When plasma drug concentration-time curves were plotted, BLQ was recorded as 0. When the pharmacokinetic parameters were calculated, the concentration before administration was calculated as 0; BLQ before Cmax (including “No peak”) was calculated as 0; and BLQ that occurs after Cmax (including “No peak”) was excluded from the calculation. The following pharmacokinetic parameters were calculated from the plasma concentration data of different time points using the non-compartmental analysis method of Phoenix WinNonlin 7.0 software: AUC(0−t), AUC(0−∞), T1/2, MRT, Cmax, Tmax, etc.

Row | Compound | AUC (comparison in words) [1] | T1/2 (comparison in words) [1] | AUC(0-t) [2] | Cmax [2] | Tmax [2] | half-life [2] | MRT last [2]
1 | [2H]C([2H])(CCN1Cc2c(cc(O)c3c2O[C@@](C)(CC/C=C(\C)CCC=C(C)C)[C@@H](O)C3)C1=O)[C@@H](C(=O)O)N1Cc2c(cc(O)c3c2O[C@@](C)(CC/C=C(\C)CCC=C(C)C)[C@@H](O)C3)C1=O [Compound 3, β-Deutero SMTP-7] | did not greatly differ | did not greatly differ |  |  |  |  | 
2 | [2H][C@](CCCN1Cc2c(cc(O)c3c2O[C@@](C)(CC/C=C(\C)CCC=C(C)C)[C@@H](O)C3)C1=O)(C(=O)O)N1Cc2c(cc(O)c3c2O[C@@](C)(CC/C=C(\C)CCC=C(C)C)[C@@H](O)C3)C1=O [Compound 2, α-Deutero SMTP-7] | did not greatly differ | did not greatly differ |  |  |  |  | 
3 | [2H]C([2H])(C[C@@H](C(=O)O)N1Cc2c(cc(O)c3c2O[C@@](C)(CC/C=C(\C)CCC=C(C)C)[C@@H](O)C3)C1=O)CN1Cc2c(cc(O)c3c2O[C@@](C)(CC/C=C(\C)CCC=C(C)C)[C@@H](O)C3)C1=O [Compound 4, γ-Deutero SMTP-7] | lower AUC than SMTP-7 | lower T1/2 |  |  |  |  | 
4 | CC(C)=CCC/C(C)=C/CC[C@]1(C)Oc2c(c(O)cc3c2CN(CCC[C@@H](C(=O)O)N2Cc4c(cc(O)c5c4O[C@@](C)(CC/C=C(\C)CCC=C(C)C)[C@@H](O)C5)C2=O)C3=O)C[C@@H]1O [SMTP-7, Stachybotrys microspore triprenyl phenol-7] | did not greatly differ | did not greatly differ | 8010 ng·h/mL | 26300 ng/mL | 4.8 min | 6.69 ± 0.178 h | 0.465 ± 0.08 h
5 | [2H]C([2H])(CC[C@@H](C(=O)O)N1Cc2c(cc(O)c3c2O[C@@](C)(CC/C=C(\C)CCC=C(C)C)[C@@H](O)C3)C1=O)N1Cc2c(cc(O)c3c2O[C@@](C)(CC/C=C(\C)CCC=C(C)C)[C@@H](O)C3)C1=O [Compound 1, δ-Deutero SMTP-7] |  |  | 11300 ng·h/mL | 19100 ng/mL | 4.8 min | 8.94 ± 0.61 h | 3.06 ± 0.25 h
